Measured values: publication PMC11480411, “Mucosal sugars delineate pyrazine vs pyrazinone autoinducer signaling in Klebsiella oxytoca” (Nature Communications, 2024)

Columns and labels:
Experiment in all cases: PRESTO-Tango GPCR screen
Type in all cases: cell-based
Details in all cases: 100 µM
NMUR2 = biological target: T1, NMUR2 (Homo sapiens, UniProt Q9GZQ4)
T1 construct: purchased PRESTO-Tango GPCR kit (Roth lab / Addgene)
Method in brief: (§1)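 Screening was done at 100 μM final ligand concentration, applied for 20 h to HTLA cells transiently expressing the individual GPCR-Tango construct. Readout: Bright-Glo luminescence, normalised as fold of PBS control.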

S1PR1 = biological target: T2, S1PR1 (Homo sapiens, UniProt P21453)
T2 construct: purchased PRESTO-Tango GPCR kit (Roth lab / Addgene)
Method in brief: as §1

CALCRb = biological target: T3, CALCRb (Homo sapiens, UniProt P30988)
T3 construct: purchased PRESTO-Tango GPCR kit (Roth lab / Addgene)
Method in brief: as §1

CCR6 = biological target: T4, CCR6 (Homo sapiens, UniProt P51684)
T4 construct: purchased PRESTO-Tango GPCR kit (Roth lab / Addgene)
Method in brief: as §1

HTR1A = biological target: T5, HTR1A (Homo sapiens, UniProt P08908)
T5 construct: purchased PRESTO-Tango GPCR kit (Roth lab / Addgene)
Method in brief: as §1

RXFP2 = biological target: T6, RXFP2 (Homo sapiens, UniProt Q8WXD0)
T6 construct: purchased PRESTO-Tango GPCR kit (Roth lab / Addgene)
Method in brief: as §1

GPR143 = biological target: T7, GPR143 (Homo sapiens, UniProt P51810)
T7 construct: purchased PRESTO-Tango GPCR kit (Roth lab / Addgene)
Method in brief: as §1

DRD3 = biological target: T8, DRD3 (Homo sapiens, UniProt P35462)
T8 construct: purchased PRESTO-Tango GPCR kit (Roth lab / Addgene)
Method in brief: as §1

CYSLTR1 = biological target: T9, CYSLTR1 (Homo sapiens, UniProt Q9Y271)
T9 construct: purchased PRESTO-Tango GPCR kit (Roth lab / Addgene)
Method in brief: as §1

GNRHR = biological target: T10, GNRHR (Homo sapiens, UniProt P30968)
T10 construct: purchased PRESTO-Tango GPCR kit (Roth lab / Addgene)
Method in brief: as §1

HCA3 = biological target: T11, HCA3 (Homo sapiens, UniProt P49019)
T11 construct: purchased PRESTO-Tango GPCR kit (Roth lab / Addgene)
Method in brief: as §1

RXFP1 = biological target: T12, RXFP1 (Homo sapiens, UniProt Q9HBX9)
T12 construct: purchased PRESTO-Tango GPCR kit (Roth lab / Addgene)
Method in brief: as §1

GPR27 = biological target: T13, GPR27 (Homo sapiens, UniProt Q9NS67)
T13 construct: purchased PRESTO-Tango GPCR kit (Roth lab / Addgene)
Method in brief: as §1

P2RY12 = biological target: T14, P2RY12 (Homo sapiens, UniProt Q9H244)
T14 construct: purchased PRESTO-Tango GPCR kit (Roth lab / Addgene)
Method in brief: as §1

AVPR1A = biological target: T15, AVPR1A (Homo sapiens, UniProt P37288)
T15 construct: purchased PRESTO-Tango GPCR kit (Roth lab / Addgene)
Method in brief: as §1

OXGR1 = biological target: T16, OXGR1 (Homo sapiens, UniProt Q96P68)
T16 construct: purchased PRESTO-Tango GPCR kit (Roth lab / Addgene)
Method in brief: as §1

TSHR = biological target: T17, TSHR (Homo sapiens, UniProt P16473)
T17 construct: purchased PRESTO-Tango GPCR kit (Roth lab / Addgene)
Method in brief: as §1

AGTR1 = biological target: T18, AGTR1 (Homo sapiens, UniProt P30556)
T18 construct: purchased PRESTO-Tango GPCR kit (Roth lab / Addgene)
Method in brief: as §1

CCKAR = biological target: T19, CCKAR (Homo sapiens, UniProt P32238)
T19 construct: purchased PRESTO-Tango GPCR kit (Roth lab / Addgene)
Method in brief: as §1

GPR65 = biological target: T20, GPR65 (Homo sapiens, UniProt Q8IYL9)
T20 construct: purchased PRESTO-Tango GPCR kit (Roth lab / Addgene)
Method in brief: as §1

ELTD1 = biological target: T21, ELTD1 (Homo sapiens, UniProt Q9HBW9)
T21 construct: purchased PRESTO-Tango GPCR kit (Roth lab / Addgene)
Method in brief: as §1

GPR135 = biological target: T22, GPR135 (Homo sapiens, UniProt Q8IZ08)
T22 construct: purchased PRESTO-Tango GPCR kit (Roth lab / Addgene)
Method in brief: as §1

NPS = biological target: T23, NPS (Homo sapiens, UniProt Q6W5P4)
T23 construct: purchased PRESTO-Tango GPCR kit (Roth lab / Addgene)
Method in brief: as §1

GPR173 = biological target: T24, GPR173 (Homo sapiens, UniProt Q9NS66)
T24 construct: purchased PRESTO-Tango GPCR kit (Roth lab / Addgene)
Method in brief: as §1

GLP1R = biological target: T25, GLP1R (Homo sapiens, UniProt P43220)
T25 construct: purchased PRESTO-Tango GPCR kit (Roth lab / Addgene)
Method in brief: as §1

CRHR2 = biological target: T26, CRHR2 (Homo sapiens, UniProt Q13324)
T26 construct: purchased PRESTO-Tango GPCR kit (Roth lab / Addgene)
Method in brief: as §1

NPY5R = biological target: T27, NPY5R (Homo sapiens, UniProt Q15761)
T27 construct: purchased PRESTO-Tango GPCR kit (Roth lab / Addgene)
Method in brief: as §1

HCTR1 = biological target: T28, HCTR1 (Homo sapiens, UniProt O43613)
T28 construct: purchased PRESTO-Tango GPCR kit (Roth lab / Addgene)
Method in brief: as §1

CHRM3 = biological target: T29, CHRM3 (Homo sapiens, UniProt P20309)
T29 construct: purchased PRESTO-Tango GPCR kit (Roth lab / Addgene)
Method in brief: as §1

TA1 = biological target: T30, TA1 (Homo sapiens, UniProt Q96RJ0)
T30 construct: purchased PRESTO-Tango GPCR kit (Roth lab / Addgene)
Method in brief: as §1

QRFP = biological target: T31, QRFP (Homo sapiens, UniProt Q96P65)
T31 construct: purchased PRESTO-Tango GPCR kit (Roth lab / Addgene)
Method in brief: as §1

SSTR5 = biological target: T32, SSTR5 (Homo sapiens, UniProt P35346)
T32 construct: purchased PRESTO-Tango GPCR kit (Roth lab / Addgene)
Method in brief: as §1

GPR21 = biological target: T33, GPR21 (Homo sapiens, UniProt Q99679)
T33 construct: purchased PRESTO-Tango GPCR kit (Roth lab / Addgene)
Method in brief: as §1

CXCR4 = biological target: T34, CXCR4 (Homo sapiens, UniProt P61073)
T34 construct: purchased PRESTO-Tango GPCR kit (Roth lab / Addgene)
Method in brief: as §1

GPR44 = biological target: T35, GPR44 (Homo sapiens, UniProt Q9Y5Y4)
T35 construct: purchased PRESTO-Tango GPCR kit (Roth lab / Addgene)
Method in brief: as §1

CRHR1 = biological target: T36, CRHR1 (Homo sapiens, UniProt P34998)
T36 construct: purchased PRESTO-Tango GPCR kit (Roth lab / Addgene)
Method in brief: as §1

T36 sequence (P34998 24-415): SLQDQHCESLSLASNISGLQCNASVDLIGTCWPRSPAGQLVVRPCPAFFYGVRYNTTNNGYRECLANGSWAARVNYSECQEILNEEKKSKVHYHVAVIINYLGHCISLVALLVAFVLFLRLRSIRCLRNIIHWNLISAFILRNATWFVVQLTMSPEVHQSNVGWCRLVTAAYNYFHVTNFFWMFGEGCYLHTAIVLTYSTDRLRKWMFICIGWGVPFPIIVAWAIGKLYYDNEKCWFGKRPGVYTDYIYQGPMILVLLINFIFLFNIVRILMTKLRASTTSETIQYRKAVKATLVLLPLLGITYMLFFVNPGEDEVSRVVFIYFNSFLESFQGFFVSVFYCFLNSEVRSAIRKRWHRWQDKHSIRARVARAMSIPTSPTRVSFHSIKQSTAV
T33 sequence (Q99679 whole entry): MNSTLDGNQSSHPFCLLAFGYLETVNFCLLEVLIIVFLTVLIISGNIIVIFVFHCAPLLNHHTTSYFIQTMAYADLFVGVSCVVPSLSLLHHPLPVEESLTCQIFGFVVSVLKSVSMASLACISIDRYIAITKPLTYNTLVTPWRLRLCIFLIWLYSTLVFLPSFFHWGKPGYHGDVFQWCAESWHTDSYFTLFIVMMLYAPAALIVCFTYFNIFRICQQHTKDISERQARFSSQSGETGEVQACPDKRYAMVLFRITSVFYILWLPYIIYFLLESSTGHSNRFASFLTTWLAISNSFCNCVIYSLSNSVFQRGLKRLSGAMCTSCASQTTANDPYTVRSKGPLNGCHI
T14 sequence (Q9H244 whole entry, one chain of several): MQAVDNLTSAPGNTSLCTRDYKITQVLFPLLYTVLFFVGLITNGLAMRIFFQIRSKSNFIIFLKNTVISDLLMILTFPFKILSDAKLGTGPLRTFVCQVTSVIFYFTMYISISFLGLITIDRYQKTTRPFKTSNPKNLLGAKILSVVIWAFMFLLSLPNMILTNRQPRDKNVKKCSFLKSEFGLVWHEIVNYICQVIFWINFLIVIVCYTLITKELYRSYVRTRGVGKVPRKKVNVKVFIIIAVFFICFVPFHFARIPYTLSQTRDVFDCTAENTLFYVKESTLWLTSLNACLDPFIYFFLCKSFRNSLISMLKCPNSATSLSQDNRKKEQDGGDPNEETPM
T15 sequence (P37288 whole entry): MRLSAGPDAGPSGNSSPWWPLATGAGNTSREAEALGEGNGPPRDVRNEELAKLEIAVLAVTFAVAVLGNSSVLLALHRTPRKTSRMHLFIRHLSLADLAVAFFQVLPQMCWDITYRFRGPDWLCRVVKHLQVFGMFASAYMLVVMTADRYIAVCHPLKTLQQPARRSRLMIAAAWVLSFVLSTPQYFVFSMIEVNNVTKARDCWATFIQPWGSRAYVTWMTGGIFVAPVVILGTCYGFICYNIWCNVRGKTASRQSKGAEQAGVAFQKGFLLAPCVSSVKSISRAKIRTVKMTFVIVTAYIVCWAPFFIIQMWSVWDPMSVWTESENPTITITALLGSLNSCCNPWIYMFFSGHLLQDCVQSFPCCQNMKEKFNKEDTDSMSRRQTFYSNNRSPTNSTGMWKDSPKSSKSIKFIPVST
T6 sequence (Q8WXD0 whole entry): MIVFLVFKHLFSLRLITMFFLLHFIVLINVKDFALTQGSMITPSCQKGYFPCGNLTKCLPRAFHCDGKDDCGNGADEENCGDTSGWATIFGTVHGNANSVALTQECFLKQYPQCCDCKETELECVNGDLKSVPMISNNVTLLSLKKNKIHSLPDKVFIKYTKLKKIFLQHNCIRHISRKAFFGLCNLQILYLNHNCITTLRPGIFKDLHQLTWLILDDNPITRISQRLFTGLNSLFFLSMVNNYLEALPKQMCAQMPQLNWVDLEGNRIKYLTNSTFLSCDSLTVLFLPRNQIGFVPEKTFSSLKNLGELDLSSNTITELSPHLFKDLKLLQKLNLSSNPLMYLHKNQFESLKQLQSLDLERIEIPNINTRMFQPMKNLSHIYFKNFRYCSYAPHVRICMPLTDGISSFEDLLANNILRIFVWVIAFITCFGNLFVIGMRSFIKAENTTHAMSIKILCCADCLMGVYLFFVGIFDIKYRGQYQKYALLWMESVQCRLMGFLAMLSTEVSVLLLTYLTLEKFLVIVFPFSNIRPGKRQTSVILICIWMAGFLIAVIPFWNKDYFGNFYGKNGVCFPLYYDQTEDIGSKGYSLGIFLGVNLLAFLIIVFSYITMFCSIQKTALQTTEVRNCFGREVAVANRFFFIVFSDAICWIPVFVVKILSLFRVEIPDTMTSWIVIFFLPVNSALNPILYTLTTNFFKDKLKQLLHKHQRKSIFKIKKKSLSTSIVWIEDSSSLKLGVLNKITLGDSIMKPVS
T17 sequence (P16473 21-764): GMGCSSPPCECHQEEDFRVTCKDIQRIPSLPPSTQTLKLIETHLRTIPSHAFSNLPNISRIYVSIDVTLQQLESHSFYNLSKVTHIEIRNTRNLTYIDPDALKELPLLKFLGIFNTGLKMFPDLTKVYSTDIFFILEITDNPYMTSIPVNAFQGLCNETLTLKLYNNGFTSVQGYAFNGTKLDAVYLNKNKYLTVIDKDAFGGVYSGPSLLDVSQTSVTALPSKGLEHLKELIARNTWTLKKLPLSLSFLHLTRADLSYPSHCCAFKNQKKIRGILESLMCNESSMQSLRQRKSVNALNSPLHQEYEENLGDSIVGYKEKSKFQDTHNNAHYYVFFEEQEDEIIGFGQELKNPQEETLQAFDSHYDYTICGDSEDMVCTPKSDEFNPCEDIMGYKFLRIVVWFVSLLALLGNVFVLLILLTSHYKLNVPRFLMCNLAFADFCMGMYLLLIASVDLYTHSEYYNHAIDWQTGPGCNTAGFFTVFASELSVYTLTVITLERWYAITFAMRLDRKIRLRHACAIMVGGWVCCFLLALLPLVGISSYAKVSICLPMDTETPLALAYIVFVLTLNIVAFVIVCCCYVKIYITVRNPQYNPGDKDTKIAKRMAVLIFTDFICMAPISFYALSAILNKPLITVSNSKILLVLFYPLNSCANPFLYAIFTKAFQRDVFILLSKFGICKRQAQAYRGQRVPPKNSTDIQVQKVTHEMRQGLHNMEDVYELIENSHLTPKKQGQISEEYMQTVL
T26 sequence (Q13324 whole entry): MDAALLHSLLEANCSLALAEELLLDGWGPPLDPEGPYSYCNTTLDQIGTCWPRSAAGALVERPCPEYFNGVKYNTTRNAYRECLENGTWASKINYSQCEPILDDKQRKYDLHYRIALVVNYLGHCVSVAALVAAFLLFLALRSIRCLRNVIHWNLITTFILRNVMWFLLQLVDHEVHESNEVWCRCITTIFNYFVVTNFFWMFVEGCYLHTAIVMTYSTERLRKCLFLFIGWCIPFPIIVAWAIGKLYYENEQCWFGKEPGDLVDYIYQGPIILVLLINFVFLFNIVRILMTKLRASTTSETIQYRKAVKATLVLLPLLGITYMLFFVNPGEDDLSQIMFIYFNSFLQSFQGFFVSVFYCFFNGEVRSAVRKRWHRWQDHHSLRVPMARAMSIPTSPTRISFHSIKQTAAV
T32 sequence (P35346 whole entry): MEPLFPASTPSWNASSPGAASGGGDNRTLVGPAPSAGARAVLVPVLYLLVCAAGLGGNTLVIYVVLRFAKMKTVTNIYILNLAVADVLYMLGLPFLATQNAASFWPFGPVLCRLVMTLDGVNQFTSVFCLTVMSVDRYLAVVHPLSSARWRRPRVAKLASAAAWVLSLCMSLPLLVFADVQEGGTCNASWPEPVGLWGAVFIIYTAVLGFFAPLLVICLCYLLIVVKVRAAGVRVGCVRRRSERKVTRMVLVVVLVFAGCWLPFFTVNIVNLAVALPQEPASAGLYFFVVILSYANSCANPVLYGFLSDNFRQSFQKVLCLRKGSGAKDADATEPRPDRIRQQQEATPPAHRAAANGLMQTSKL
T30 sequence (Q96RJ0 whole entry): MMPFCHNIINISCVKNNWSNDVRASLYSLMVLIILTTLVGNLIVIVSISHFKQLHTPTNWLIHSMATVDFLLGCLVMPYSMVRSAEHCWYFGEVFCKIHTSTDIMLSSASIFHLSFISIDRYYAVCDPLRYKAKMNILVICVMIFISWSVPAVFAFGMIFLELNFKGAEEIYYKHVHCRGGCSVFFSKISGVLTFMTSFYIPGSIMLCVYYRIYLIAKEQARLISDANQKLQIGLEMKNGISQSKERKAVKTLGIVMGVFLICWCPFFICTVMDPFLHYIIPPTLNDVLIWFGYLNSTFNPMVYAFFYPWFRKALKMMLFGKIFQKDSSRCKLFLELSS
T3 sequence (P30988 25-490 isoform P30988-1 limits assumed): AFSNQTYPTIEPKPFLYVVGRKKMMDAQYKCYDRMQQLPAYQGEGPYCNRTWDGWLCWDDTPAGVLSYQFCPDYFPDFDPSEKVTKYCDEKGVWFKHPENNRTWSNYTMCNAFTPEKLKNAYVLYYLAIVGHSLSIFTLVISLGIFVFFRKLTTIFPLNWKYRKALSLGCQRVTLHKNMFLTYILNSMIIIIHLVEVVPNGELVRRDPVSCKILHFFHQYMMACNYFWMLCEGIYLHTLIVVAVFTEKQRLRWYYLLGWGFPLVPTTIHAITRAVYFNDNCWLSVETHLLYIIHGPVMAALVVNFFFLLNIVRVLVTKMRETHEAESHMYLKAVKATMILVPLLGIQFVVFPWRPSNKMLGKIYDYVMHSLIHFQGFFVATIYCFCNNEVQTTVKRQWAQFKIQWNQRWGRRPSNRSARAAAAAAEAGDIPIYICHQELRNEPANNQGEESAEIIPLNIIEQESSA
T20 sequence (Q8IYL9 whole entry): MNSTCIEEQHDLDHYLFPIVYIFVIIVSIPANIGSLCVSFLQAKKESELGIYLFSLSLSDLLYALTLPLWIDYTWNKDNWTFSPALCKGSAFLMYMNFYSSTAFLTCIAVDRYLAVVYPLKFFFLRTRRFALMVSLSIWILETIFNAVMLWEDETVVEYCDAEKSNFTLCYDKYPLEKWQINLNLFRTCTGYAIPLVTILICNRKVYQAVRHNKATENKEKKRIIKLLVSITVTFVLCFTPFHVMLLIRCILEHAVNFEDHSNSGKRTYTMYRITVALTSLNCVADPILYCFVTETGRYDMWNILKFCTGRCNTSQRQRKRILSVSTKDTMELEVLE

SMILES | GPCR activation (heatmap value) (NMUR2) | GPCR activation (heatmap value) (S1PR1) | GPCR activation (heatmap value) (CALCRb) | GPCR activation (heatmap value) (CCR6) | GPCR activation (heatmap value) (HTR1A) | GPCR activation (heatmap value) (RXFP2) | GPCR activation (heatmap value) (GPR143) | GPCR activation (heatmap value) (DRD3) | GPCR activation (heatmap value) (CYSLTR1) | GPCR activation (heatmap value) (GNRHR) | GPCR activation (heatmap value) (HCA3) | GPCR activation (heatmap value) (RXFP1) | GPCR activation (heatmap value) (GPR27) | GPCR activation (heatmap value) (P2RY12) | GPCR activation (heatmap value) (AVPR1A) | GPCR activation (heatmap value) (OXGR1) | GPCR activation (heatmap value) (TSHR) | GPCR activation (heatmap value) (AGTR1) | GPCR activation (heatmap value) (CCKAR) | GPCR activation (heatmap value) (GPR65) | also measured
CC(C)Cc1ncc(CCCCNC(=N)N)[nH]c1=O [3-Homo] | 0.3619 | -0.03733 | -1.592 | -1.378 | -0.3927 | 0.2908 | -0.07136 | 0.04182 | -0.2334 | -0.5775 | -0.8056 | -0.5413 | -0.5119 | 0.3372 | 0.8531 | 0.2343 | -0.3975 | 0.01764 | 0.3945 | 0.1433 | GPCR activation (heatmap value) (ELTD1): 0.08719; GPCR activation (heatmap value) (GPR135): -0.1206; GPCR activation (heatmap value) (NPS): -0.3425; GPCR activation (heatmap value) (GPR173): -0.8728; GPCR activation (heatmap value) (GLP1R): 0.1789; GPCR activation (heatmap value) (CRHR2): -0.3278; GPCR activation (heatmap value) (NPY5R): -0.26; GPCR activation (heatmap value) (HCTR1): 0.1163; GPCR activation (heatmap value) (CHRM3): 0.5889; GPCR activation (heatmap value) (TA1): 0.4199; GPCR activation (heatmap value) (QRFP): 0.525; GPCR activation (heatmap value) (SSTR5): -0.02493; GPCR activation (heatmap value) (GPR21): 0.4357; GPCR activation (heatmap value) (CXCR4): 0.1574; GPCR activation (heatmap value) (GPR44): 0.02511; GPCR activation (heatmap value) (CRHR1): 0.4025
CC(C)Cc1ncc(CCCNC(=N)N)[nH]c1=O [compound 3] | 0.09545 | -0.122 | -0.6231 | 0.5005 | -0.02258 | -0.001018 | 0.5685 | 0.613 | 0.3416 | 0.3051 | -0.032 | -0.4212 | 0.1426 | 0.4559 | 0.9724 | -0.2265 | 0.2016 | 0.0619 | 0.06622 | -0.2267 | GPCR activation (heatmap value) (ELTD1): 0.3234; GPCR activation (heatmap value) (GPR135): -1.115; GPCR activation (heatmap value) (NPS): -0.7734; GPCR activation (heatmap value) (GPR173): -0.2495; GPCR activation (heatmap value) (GLP1R): 0.3036; GPCR activation (heatmap value) (CRHR2): -0.2766; GPCR activation (heatmap value) (NPY5R): 0.08813; GPCR activation (heatmap value) (HCTR1): -0.3941; GPCR activation (heatmap value) (CHRM3): -0.8614; GPCR activation (heatmap value) (TA1): -0.5267; GPCR activation (heatmap value) (QRFP): 0.1257; GPCR activation (heatmap value) (SSTR5): -1.082; GPCR activation (heatmap value) (GPR21): 1.034; GPCR activation (heatmap value) (CXCR4): -0.06133; GPCR activation (heatmap value) (GPR44): 0.23; GPCR activation (heatmap value) (CRHR1): -0.3752
